Experiments:
p45 v-abl kinase = biological target: T1, p45 v-abl kinase (Abelson murine leukemia virus, UniProt P00521); assay: p45 v-abl Kinase Assay ((Val^5)-Angiotensin II phosphorylation, in vitro); type: biochemical
T1 construct: by cited methods bacterially expressed (E. coli)
Procedure: p45 v-abl kinase purification. The enzyme used in our test was the p45 v-abl tyrosine kinase which represents the catalytic domain of the Abelson tyrosine kinase (isolated from the Abelson murine leukemia virus). The p45 v-abl kinase was produced and isolated as described by Wang et al. in J. Biol. Chem. 260, 64 (1985) and by Ferguson et al. in J. Biol. Chem. 260, 3652 (1985) and in Biochem. J. 257, 321 (1989).
p45 v-abl Kinase Assay. (Val^5)-Angiotensin II phosphorylation was performed by incubation with 40 ng of purified abl-kinase and (γ-^32 P)-ATP, in 50 μl of buffer containing Tris-HCl 25 mM, pH 8.0, MgCl2 10 mM and dithiothreitol 0.1 mM (kinase buffer). The reaction mixture was incubated for the indicated time at 30° C. and the reaction stopped by adding 50 μl of 5% trichloroacetic acid. After a brief incubation on ice, tubes were centrifuged. The supernatants were spotted on phosphocellulose paper squares (Whatman P-81) and washed extensively in acetic acid. The radioactivity bound to dried phosphocellulose squares was measured in a liquid scintillation counter. IC50 values were calculated from triplicate determinations of each experimental point. Each inhibitor was tested at concentrations ranging from […] in the presence of fixed concentrations of peptide (2 mM) and ATP (50 μM).
(§1) The inhibitory activity data for a representative group of compounds according to the present invention, obtained both in the in vitro p45 v-abl kinase assay and in the in vivo human chronic myeloid leukemia K 562 cell growth inhibition assay described above, are set out in following Table 1.

[1] = test system: K562 cells (human chronic myeloid leukemia); assay: K562 cell growth inhibition assay ([^3-H]-Thymidine, headed In Vivo ASSAY); type: cell-based; conditions: K562 cells in suspension, 66 h, with or without 10% foetal calf serum
Procedure: K562 cell growth inhibition assay. 1 ml of K562 cells, grown in suspension, were incubated for 66 h with or without 10% foetal calf serum in the presence of 1 μCi of [^3 -H]-Thymidine. Cells were harvested, washed three times in cold PBS and treated with 5% trichloroacetic acid for 5 min on ice. After a wash in ethanol: ether 2:1, the DNA was extracted by 0.5N NaOH for 2 h at room temperature. The extract was counted in a liquid scintillation counter.
as §1

T1 sequence (P00521 whole entry): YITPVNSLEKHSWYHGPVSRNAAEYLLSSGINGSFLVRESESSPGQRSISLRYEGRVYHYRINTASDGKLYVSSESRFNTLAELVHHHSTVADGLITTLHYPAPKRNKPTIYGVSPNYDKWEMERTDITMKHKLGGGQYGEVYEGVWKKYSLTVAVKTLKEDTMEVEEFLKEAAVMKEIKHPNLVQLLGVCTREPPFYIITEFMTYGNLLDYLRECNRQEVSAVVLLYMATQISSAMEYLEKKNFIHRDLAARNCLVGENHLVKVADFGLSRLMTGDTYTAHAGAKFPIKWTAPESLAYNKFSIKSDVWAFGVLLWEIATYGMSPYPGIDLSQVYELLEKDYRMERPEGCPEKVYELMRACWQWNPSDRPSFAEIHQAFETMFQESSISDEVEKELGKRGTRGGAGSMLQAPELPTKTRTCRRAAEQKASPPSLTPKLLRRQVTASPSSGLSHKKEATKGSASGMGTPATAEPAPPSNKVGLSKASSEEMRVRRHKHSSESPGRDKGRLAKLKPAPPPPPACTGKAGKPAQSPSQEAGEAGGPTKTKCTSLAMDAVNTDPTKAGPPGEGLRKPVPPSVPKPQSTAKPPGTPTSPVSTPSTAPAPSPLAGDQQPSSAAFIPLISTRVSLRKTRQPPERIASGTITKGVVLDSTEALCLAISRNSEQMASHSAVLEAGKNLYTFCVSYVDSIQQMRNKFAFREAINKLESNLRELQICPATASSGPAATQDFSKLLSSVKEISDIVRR

Structure (SMILES): Nc1ccc2c(c1)C(=Cc1ccc(O)c3ncccc13)C(=O)N2 [FCE 27518, 5-amino-3-[(8'-hydroxy-5'-quinolyl)methylene]-2-oxindole]
- IC50 (p45 v-abl kinase): 6.9 µM
- IC50 [1]: 1.2 µM

Structure (SMILES): COc1ccc2[nH]cc(C=C3C(=O)Nc4ccccc43)c2c1 [FCE 27564, 3-[(5'-methoxy-3'-indolyl)methylene]-2-oxindole]
- IC50 (p45 v-abl kinase): 0.8 µM
- IC50 [1]: 4.15 µM

Structure (SMILES): N#Cc1ccc2[nH]cc(C=C3C(=O)Nc4ccccc43)c2c1 [FCE 27565, 3-[(5'-cyano-3'-indolyl)methylene]-2-oxindole]
- IC50 (p45 v-abl kinase): 2.4 µM

Structure (SMILES): Cc1[nH]c2ccccc2c1C=C1C(=O)Nc2ccccc21 [FCE 27566, 3-[(2'-methyl-3'-indolyl)methylene]-2-oxindole]
- IC50 (p45 v-abl kinase): 15.6 µM
- IC50 [1]: 2.2 µM

Structure (SMILES): O=C1Nc2ccccc2C1=Cc1c[nH]c2ccc(O)cc12 [FCE 27866, 3-[(5'-hydroxy-3'-indolyl)methylene]-2-oxindole]
- IC50 (p45 v-abl kinase): 5.2 µM
- IC50 [1]: 8.75 µM

Structure (SMILES): O=C1Nc2ccc(Br)cc2C1=Cc1ccc(O)c2ncccc12 [FCE 27996, 5-bromo-3-[(8'-hydroxy-5'-quinolyl)methylene]-2-oxindole]
- IC50 (p45 v-abl kinase): 2.6 µM
- IC50 [1]: 0.62 µM

Structure (SMILES): O=C1Nc2ccc(O)cc2C1=Cc1ccc(O)c2c1CCCC2 [FCE 28337, 5-hydroxy-3-[(4'-hydroxy-1'-tetralyl)methylene]-2-oxindole]
- IC50 (p45 v-abl kinase): 2.32 µM
- IC50 [1]: 11.5 µM

Structure (SMILES): COc1ccc2[nH]cc(C=C3C(=O)Nc4ccc(O)cc43)c2c1 [FCE 28359, 5-hydroxy-3-[(5'-methoxy-3'-indolyl)methylene]-2-oxindole]
- IC50 (p45 v-abl kinase): 0.39 µM
- IC50 [1]: 8.15 µM

Structure (SMILES): Nc1ccc2c(c1)C(=Cc1cc(O)c3c(c1O)CCCC3)C(=O)N2 [FCE 28360, 5-amino-3-[(1',4'-dihydroxy-2'-tetralyl)methylene]-2-oxindole]
- IC50 (p45 v-abl kinase): 4.7 µM
- IC50 [1]: 6.25 µM

Structure (SMILES): COc1ccc2[nH]cc(C=C3C(=O)Nc4ccc(N)cc43)c2c1 [FCE 28436, 5-amino-3-[(5'-methoxy-3'-indolyl)methylene]-2-oxindole]
- IC50 (p45 v-abl kinase): 0.305 µM
- IC50 [1]: 14.5 µM

— patent US5656654A, “Arylidene and heteroarylidene oxindole derivatives and process for their preparation” (Farmitalia Carlo Erba S.r.l., priority 1993, dated 1997)
